Where “and” joins values, the source holds several entries; their conditions need not be identical. Equal values may be shown once. Inconclusive results and toxic doses are left out. The calls were made as follows: active = survival T/C of 150% or more; inactive = T/C below 125% in these data.
System: BDF1 mice, P388 leukemia ip, median survival T/C
Assay: NCI In Vivo Anticancer Drug Screen. Data for tumor model P388 Leukemia (intraperitoneal) in B6D2F1 (BDF1) mice
Conditions: endpoint: median survival time, higher = longer survival
Method in brief: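 T/C = treated-group survival ÷ vehicle-control survival; tumour transplanted into mice before dosing.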

[1] = dose: 50.0 mg/kg/injection, schedule: Q04DX003 (ip), vehicle: saline with Tween-80
[2] = dose: 50.0 mg/kg/injection, schedule: Q01DX009 (ip), vehicle: saline with Tween-80
[3] = dose: 200.0 mg/kg/injection, schedule: Q01DX009 (ip), vehicle: saline with Tween-80
[4] = dose: 100.0 mg/kg/injection, schedule: Q01DX009 (ip), vehicle: saline with Tween-80

Measured: T/C

O=[N+]([O-])c1cccnc1Oc1cccc(C(F)(F)F)c1
inactive: dose: 50.0 mg/kg/injection, schedule: Q01DX001 (ip), vehicle: other 100 % of control | dose: 100.0 mg/kg/injection, schedule: Q01DX001 (ip), vehicle: other 95 % of control | dose: 200.0 mg/kg/injection, schedule: Q01DX001 (ip), vehicle: other 86 % of control | dose: 400.0 mg/kg/injection, schedule: Q01DX001 (ip), vehicle: other 95 % of control

Cc1c[n+]2ccccc2n1C
inactive: dose: 25.0 mg/kg/injection, schedule: Q01DX009 (ip), vehicle: saline 100 % of control | dose: 50.0 mg/kg/injection, schedule: Q01DX009 (ip), vehicle: saline 104 % of control

CNC[C@@H](O)c1ccc(O)c(O)c1
inactive: dose: 0.25 mg/kg/injection, schedule: Q04DX003 (ip), vehicle: saline 110 % of control | dose: 0.5 mg/kg/injection, schedule: Q01DX009 (ip), vehicle: saline 91 % of control and 109 % of control | dose: 0.5 mg/kg/injection, schedule: Q04DX003 (ip), vehicle: saline 110 % of control | dose: 1.0 mg/kg/injection, schedule: Q01DX001 (ip), vehicle: saline 95 % of control | dose: 1.0 mg/kg/injection, schedule: Q01DX009 (ip), vehicle: saline 100 % of control | dose: 1.0 mg/kg/injection, schedule: Q04DX003 (ip), vehicle: saline 105 % of control | dose: 2.0 mg/kg/injection, schedule: Q01DX001 (ip), vehicle: saline 104 % of control | dose: 2.0 mg/kg/injection, schedule: Q01DX009 (ip), vehicle: saline 91 % of control and 109 % of control | dose: 2.0 mg/kg/injection, schedule: Q04DX003 (ip), vehicle: saline 86 % of control | dose: 4.0 mg/kg/injection, schedule: Q01DX009 (ip), vehicle: saline 95 % of control and 100 % of control | dose: 9.0 mg/kg/injection, schedule: Q01DX009 (ip), vehicle: saline 95 % of control

C=CC(=O)Oc1ccc(Cl)cc1
inactive: dose: 12.5 mg/kg/injection, schedule: Q04DX003 (ip), vehicle: saline with Tween-80 100 % of control | dose: 25.0 mg/kg/injection, schedule: Q04DX003 (ip), vehicle: saline with Tween-80 104 % of control | [1] 118 % of control

c1cc[c]([Pb]([c]2ccccc2)([c]2ccccc2)[n]2cccc2)cc1
inactive: dose: 3.12 mg/kg/injection, schedule: Q01DX009 (ip), vehicle: saline 90 % of control | dose: 6.25 mg/kg/injection, schedule: Q01DX009 (ip), vehicle: saline 109 % of control | dose: 12.5 mg/kg/injection, schedule: Q01DX009 (ip), vehicle: saline 109 % of control | dose: 21.25 mg/kg/injection, schedule: Q04DX003 (ip), vehicle: Klucel (hydroxypropylcellulose) (HPC) 100 % of control | dose: 42.5 mg/kg/injection, schedule: Q04DX003 (ip), vehicle: Klucel (hydroxypropylcellulose) (HPC) 113 % of control

S=C(N/N=C1\CSCc2ccccc21)Nc1cc(Cl)ccc1Cl
inactive: [2] 90 % of control | [3] 88 % of control

CCOC(=O)c1ccc(NCC#N)cc1
inactive: [4] 90 % of control | [3] 100 % of control | dose: 400.0 mg/kg/injection, schedule: Q01DX009 (ip), vehicle: saline with Tween-80 100 % of control

O=[N+]([O-])c1ccc(S(=O)c2ccccc2)c2c1no[n+]2[O-] (stereo unspecified)
inactive: dose: 22.5 mg/kg/injection, schedule: Q01DX009 (ip), vehicle: saline with Tween-80 92 % of control | dose: 45.0 mg/kg/injection, schedule: Q01DX009 (ip), vehicle: saline with Tween-80 93 % of control

COc1ccc(C(=O)/C=C/c2ccc(OCc3ccccc3)cc2)cc1
inactive: [2] 100 % of control | [4] 91 % of control | [3] 96 % of control

c1ccc(OCC2c3ccccc3Nc3ccccc32)cc1
inactive: dose: 100.0 mg/kg/injection, schedule: Q01DX001 (ip), vehicle: saline with Tween-80 91 % of control | dose: 200.0 mg/kg/injection, schedule: Q01DX001 (ip), vehicle: saline with Tween-80 94 % of control | dose: 400.0 mg/kg/injection, schedule: Q01DX001 (ip), vehicle: saline with Tween-80 100 % of control

C/C=C1\C[N+]2(C)CCC34c5ccccc5NC32C(O)CC1C4(CO)C(=O)OC (stereo unspecified)
inactive: dose: 2.0 mg/kg/injection, schedule: Q01DX009 (ip), vehicle: saline with Tween-80 98 % of control | dose: 4.0 mg/kg/injection, schedule: Q01DX009 (ip), vehicle: saline with Tween-80 93 % of control | dose: 8.0 mg/kg/injection, schedule: Q01DX009 (ip), vehicle: saline with Tween-80 94 % of control

Cc1nc(N)c(Cl)nc1C
inactive: [1] 102 % of control and 104 % of control | dose: 100.0 mg/kg/injection, schedule: Q04DX003 (ip), vehicle: saline with Tween-80 103 % of control | dose: 150.0 mg/kg/injection, schedule: Q04DX003 (ip), vehicle: saline with Tween-80 103 % of control | dose: 200.0 mg/kg/injection, schedule: Q04DX003 (ip), vehicle: saline with Tween-80 95 % of control and 104 % of control | dose: 400.0 mg/kg/injection, schedule: Q04DX003 (ip), vehicle: saline with Tween-80 104 % of control
